Source: ChEMBL document CHEMBL1128017, “Antineoplastic agents 323. Isolation and structure of phakellistatin 6 from a Chuuk archipelago marine sponge” (1994)
In brackets after ≈: the same amount, converted by molar mass. Where a SMILES comes first, the peptide text is derived from it.

Columns and labels:
Assay type in all cases: functional
SK-MEL-5 = assay: Compound was tested for inhibition of SK-MEL-5 human melanoma cancer cell line
OVCAR-3 = assay: Compound was tested for inhibition of OVCAR-3 human ovarian cancer cell line
KM-20L2 = assay: Compound was tested for inhibition of KM20L2 human colon cancer cell line
NCI-H460 = assay: Compound was tested for inhibition of NCI-H460 human lung cancer cell line
SF-295 = assay: Compound was tested for inhibition of SF-295 human CNS cancer cell line
A498 = assay: Compound was tested for inhibition of A498 human renal cancer cell line
P388 = assay: Compound was tested for inhibition of murine P388 lymphocytic leukemia cancer cell line; details: Mus musculus, read-out: ED50 (the source's name)

- GI50 (SK-MEL-5): 0.032 µg/mL (≈ 0.0376 µM)
- GI50 (OVCAR-3): 0.025 µg/mL (≈ 0.0294 µM)
- GI50 (NCI-H460): 0.019 µg/mL (≈ 0.0223 µM)
- EC50 (P388): 0.185 µg/mL (≈ 0.217 µM)
SMILES: CC[C@H](C)[C@@H]1NC(=O)[C@@H]2CCCN2C(=O)[C@H](CC(C)C)NC(=O)[C@H](Cc2c[nH]c3ccccc23)NC(=O)[C@@H]2CCCN2C(=O)[C@H](Cc2ccccc2)NC(=O)[C@@H]2CCCN2C1=O (cyclo(FPWLPIP))
- GI50 (KM-20L2): 0.021 µg/mL (≈ 0.0247 µM)
- GI50 (SF-295): 0.041 µg/mL (≈ 0.0482 µM)
- GI50 (A498): 0.078 µg/mL (≈ 0.0917 µM)
